Measurements from patent US20210121426A1, “BLOOD PURIFICATION BY ALKALINIZING AGENT” (TOHOKU UNIVERSITY, priority 2017, published 2021).
Marks after values point to notes of the source that are not given here.

Assays:
[1] = system: argininosuccinic acid; test: Urine argininosuccinic acid (ASA) corrected by urinary specific gravity; assay type: in vivo, human
From the text: Medical Examination, Vol. 44, No. 1, 1995, pages 79-83 by Tetsuo Aoki et al. was referred to. A urinary specific gravity 1.022 was converted into a reference value.
Specific gravity correction value (unit/1.022·UG)=actual measurement value×(1.022−1.000)/(specific gravity value−1.000)

[2] = system: argininosuccinic acid; test: Human clinical trial in CKD patients: argininosuccinic acid in plasma and early morning urine (LC-MS/MS); assay type: in vivo; parameters: key to Influence on concentration of ASA / Influence on ASA U/P ratio: Excellent effects: ◯; Poor effects: X; No significant difference: —; (◯): whether or not there is an effect of promoting excretion of indoxyl sulfate into the urine cannot be determined
Method: (§1) 1. […] Patients were assigned to each group so that age, sex, presence of diabetes, and eGFR were not biased. Each group was treated according to the “CKD medical care guide-summary of treatment” (hereinafter referred to as standard treatment).
(§2) An alkalinizing agent was not administered to the control group. […] A pH of early morning urine was controlled over time so that the dosage could be increased up to 6 tablets, 3 times a day (morning, noon, evening) as needed according to the discretion of the physician in cases where a pH of early morning urine was less than pH 6.5. To the group B, 3 tablets a day in which each tablet contained 500 mg of sodium bicarbonate were orally administered 3 times a day (morning, noon, evening) for 24 weeks. A pH of early morning urine was controlled over time so that the dosage could be increased up to 6 tablets, 3 times a day (morning, noon, evening) as needed according to the discretion of the physician in cases where a pH of early morning urine was less than pH 6.5.
(§3) Early morning urine and blood were collected before the start of administration, and 6 weeks, 12 weeks, and 24 weeks after the start of administration, and each specimen was stored at −80° C. Methods used in the present field for indoxyl sulfate, p-cresyl sulfate, phenylacetyl-L-glutamine, hippuric acid, and argininosuccinic acid in urine and blood (Sato, E., et. al., Metabolic alteration by indoxyl sulfate in skeletal muscle induce uremic sarcopenia in chronic kidney disease., Sci Rep. 2016 Nov. 10; 6:36618. doi: 10.1038/srep36618, and the like) were referred to, and quantitative analysis was performed using the following liquid chromatography triple quadrupole mass spectrometer (LC-MS/MS).
(§4) For LC, NANOSPACE SI-2 (manufactured by Shiseido) was used, and […] MGM was selected as the analytical column.
(§5) For MS, TSQ Quantiva (manufactured by Thermo Fisher Scientific Co., Ltd.) was used, and five compounds were ionized in the negative mode and detected using the Selected Reaction Monitoring method. The quantitative value was calculated using a calibration curve prepared with a standard solution of each compound.
(§6) For statistical analysis, the Mann-Whitney test was used for comparison between groups, and the Wilcoxon test was used for comparison of changes over time. The Pearson test was used for correlation.
(§7) Then, the average value and SD of each group were calculated for (i) to (ix) above. For each of (iv) to (ix) above, the average value and SD of each group were calculated for all data of 6 weeks, 12 weeks, and 24 weeks after the start of administration in each group.

[3] = system: hippuric acid; test: Human clinical trial in CKD patients: hippuric acid in plasma and early morning urine (LC-MS/MS); assay type: in vivo; parameters: key to Influence on concentration of HA / Influence on HA U/P ratio: Excellent effects: ◯; Poor effects: X; No significant difference: —; (◯): whether or not there is an effect of promoting excretion of indoxyl sulfate into the urine cannot be determined
Method: as §1, §2, §3, §4, §5, §6, §7

[4] = 0 W, before the start of administration
[5] = 6-24 W, all data of 6, 12 and 24 weeks
[6] = Plasma, comparison with reference drug
[7] = Urine, comparison with reference drug

O=C([O-])O.[Na+] [Bicarbonate, sodium bicarbonate]
Urine ASA, specific gravity corrected ([1]; 0 W): 5.87 ± 5.13 μg · mL^−1/1.022 · UG | Urine ASA, specific gravity corrected ([1]; 6-24 W, all data): 5.02 ± 3.37 μg · mL^−1/1.022 · UG | Urine ASA, specific gravity corrected, % Relative value vs week 0 ([1]; 6-24 W, all data): 97 ± 31% | Urine ASA, specific gravity corrected, difference vs week 0 ([1]; 6-24 W, all data): −0.85 ± 2.76 μg · mL^−1/1.022 · UG | Urine ASA, specific gravity corrected ([1]; 6 W): 5.47 ± 3.87 μg · mL^−1/1.022 · UG | Urine ASA, specific gravity corrected, % Relative value vs week 0 ([1]; 6 W): 101 ± 32% | Urine ASA, specific gravity corrected, difference vs week 0 ([1]; 6 W): −0.40 ± 2.25 μg · mL^−1/1.022 · UG | Urine ASA, specific gravity corrected ([1]; 12 W): 4.66 ± 2.78 μg · mL^−1/1.022 · UG | Urine ASA, specific gravity corrected, % Relative value vs week 0 ([1]; 12 W): 93 ± 29% | Urine ASA, specific gravity corrected, difference vs week 0 ([1]; 12 W): −0.21 ± 3.04 μg · mL^−1/1.022 · UG | Urine ASA, specific gravity corrected ([1]; 24 W): 4.93 ± 3.58 μg · mL^−1/1.022 · UG | Urine ASA, specific gravity corrected, % Relative value vs week 0 ([1]; 24 W): 97 ± 33% | Urine ASA, specific gravity corrected, difference vs week 0 ([1]; 24 W): −0.94 ± 3.02 μg · mL^−1/1.022 · UG | Arginino Succinic Acid-Urine/Plasma ratio [2, 4]: 3.82 ± 4.93 | Plasma Arginino Succinic Acid [2, 4]: 1178 ± 655 ng/mL | Urine Arginino Succinic Acid (early morning urine) [2, 4]: 2911 ± 1691 ng/mL | ASA - Urine/Plasma ratio, change from week 0 [2, 5]: 1.15 ± 7.87 | Arginino Succinic Acid-Urine/Plasma ratio [2, 5]: 4.97 ± 7.98 | Plasma Arginino Succinic Acid [2, 5]: 1327 ± 1416 ng/mL | Plasma Arginino Succinic Acid, change from week 0 [2, 5]: 148.9 ± 1134 ng/mL | Urine Arginino Succinic Acid (early morning urine) [2, 5]: 3071 ± 2386 ng/mL | Urine Arginino Succinic Acid, change from week 0 [2, 5]: 160.2 ± 1756 ng/mL | ASA - Urine/Plasma ratio, change from week 0 ([2]; 6 W): 1.93 ± 7.90 | Arginino Succinic Acid-Urine/Plasma ratio ([2]; 6 W): 5.75 ± 9.80 | Plasma Arginino Succinic Acid ([2]; 6 W): 1245 ± 748 ng/mL | Plasma Arginino Succinic Acid, change from week 0 ([2]; 6 W): 66.5 ± 565.5 ng/mL | Urine Arginino Succinic Acid (early morning urine) ([2]; 6 W): 3346 ± 2636 ng/mL | Urine Arginino Succinic Acid, change from week 0 ([2]; 6 W): 434.7 ± 1299 ng/mL | effect of excretion of argininosuccinic acid from blood into urine ([2]; 6 to 24 weeks, urine/plasma ratio): more strongly recognized | ASA - Urine/Plasma ratio, change from week 0 ([2]; 12 W): −1.01 ± 4.47 | Arginino Succinic Acid-Urine/Plasma ratio ([2]; 12 W): 2.81 ± 1.86 | Plasma Arginino Succinic Acid ([2]; 12 W): 1576 ± 2160 ng/mL | Plasma Arginino Succinic Acid, change from week 0 ([2]; 12 W): 397.7 ± 1733 ng/mL | Urine Arginino Succinic Acid (early morning urine) ([2]; 12 W): 2647 ± 2123 ng/mL | Urine Arginino Succinic Acid, change from week 0 ([2]; 12 W): -264.1 ± 1491 ng/mL | ASA - Urine/Plasma ratio, change from week 0 ([2]; 24 W): 2.54 ± 10.20^a | Arginino Succinic Acid-Urine/Plasma ratio ([2]; 24 W): 6.36 ± 9.60 | Plasma Arginino Succinic Acid ([2]; 24 W): 1160 ± 977 ng/mL | Plasma Arginino Succinic Acid, change from week 0 ([2]; 24 W): -17.6 ± 776.9 ng/mL | Urine Arginino Succinic Acid (early morning urine) ([2]; 24 W): 3221 ± 2466 ng/mL | Urine Arginino Succinic Acid, change from week 0 ([2]; 24 W): 309.9 ± 2335 ng/mL | Influence on concentration of ASA ([2]; Plasma, comparison with Cont): — | Influence on concentration of ASA [2, 6]: — | Influence on ASA U/P ratio ([2]; comparison with Cont): — | Influence on ASA U/P ratio ([2]; comparison with reference drug): — | Influence on concentration of ASA ([2]; Urine, comparison with Cont): — | Influence on concentration of ASA [2, 7]: — | Hippuric Acid-Urine/Plasma ratio [3, 4]: 304.5 ± 361.8 | Plasma Hippuric Acid [3, 4]: 742 ± 706 ng/mL | Urine Hippuric Acid (early morning urine) [3, 4]: 109249 ± 96133 ng/mL | Hippuric Acid-Urine/Plasma ratio [3, 5]: 265.8 ± 812.9 | Hippuric Acid-Urine/Plasma ratio, change from week 0 [3, 5]: −50.2 ± 688.3^b | Plasma Hippuric Acid [3, 5]: 1091 ± 991 ng/mL | Plasma Hippuric Acid, change from week 0 [3, 5]: 342.1 ± 838.5 ^e ng/mL | Urine Hippuric Acid (early morning urine) [3, 5]: 103027 ± 76475 ng/mL | Urine Hippuric Acid, change from week 0 [3, 5]: -6221 ± 73493 ng/mL | Hippuric Acid-Urine/Plasma ratio ([3]; 6 W): 148.7 ± 119.2^f | Hippuric Acid-Urine/Plasma ratio, change from week 0 ([3]; 6 W): −155.8 ± 312.2^a | Plasma Hippuric Acid ([3]; 6 W): 809 ± 496 ng/mL | Plasma Hippuric Acid, change from week 0 ([3]; 6 W): 66.6 ± 681.8 ng/mL | Urine Hippuric Acid (early morning urine) ([3]; 6 W): 98283 ± 80730 ng/mL | Urine Hippuric Acid, change from week 0 ([3]; 6 W): -10966 ± 75133 ng/mL | Hippuric Acid-Urine/Plasma ratio ([3]; 12 W): 151.8 ± 115.8 | Hippuric Acid-Urine/Plasma ratio, change from week 0 ([3]; 12 W): −161.2 ± 302.1 | Plasma Hippuric Acid ([3]; 12 W): 994 ± 806 ng/mL | Plasma Hippuric Acid, change from week 0 ([3]; 12 W): 230.0 ± 655.6 ng/mL | Urine Hippuric Acid (early morning urine) ([3]; 12 W): 96346 ± 70315 ng/mL | Urine Hippuric Acid, change from week 0 ([3]; 12 W): -12903 ± 61236 ng/mL | Hippuric Acid-Urine/Plasma ratio ([3]; 24 W): 523.0 ± 1438 | Hippuric Acid-Urine/Plasma ratio, change from week 0 ([3]; 24 W): 191.1 ± 1147 | Plasma Hippuric Acid ([3]; 24 W): 1465 ± 1387^c ng/mL | Plasma Hippuric Acid, change from week 0 ([3]; 24 W): 722.3 ± 1023 ^c ng/mL | Urine Hippuric Acid (early morning urine) ([3]; 24 W): 114453 ± 81562 ng/mL | Urine Hippuric Acid, change from week 0 ([3]; 24 W): 5204 ± 85546 ng/mL | Influence on concentration of HA ([3]; Plasma, comparison with Cont): X | Influence on concentration of HA [3, 6]: — | Influence on HA U/P ratio ([3]; comparison with Cont): X | Influence on HA U/P ratio ([3]; comparison with reference drug): — | Influence on concentration of HA ([3]; Urine, comparison with Cont): — | Influence on concentration of HA [3, 7]: —
